The subject of assay [1] is orosomucoid. In words: Binding to orosomucoid (as described in Philibert et al.). Also on record: species or system human. To be noted: for Binding affinity to orosomucoid (relative to RU 486): relative to RU 486 (100%). How it is done:
Of several anti-progestagens the binding to orosomucoid is determined as described in Philibert et al., Antihormones in Health and Disease (M.K. Agarwal, ed.), 1991, 19, 1-17.

Assay [2] can be described thus: Anti-McPhail test for anti-progestagenic activity. To be noted: Minimum Active Dose (MAD). Type of assay: in vivo. As for the experimental part:
Anti-progestagenic activity is determined by using an anti-McPhail test as known to the person skilled in the art and described, int.al., in Kloosterboer et al., Human Reproduction (1994), Volume 9, Supplement 1, pages 47-52.

Some results are limits rather than exact numbers.

On to `C=C1CCO[C@]12CC[C@H]1[C@@H]3CCC4=CC(=O)CCC4=C3[C@@H](c3ccc(C(C)=O)cc3)C[C@@]12C`, for which, in assay [1], the “Binding affinity to orosomucoid (relative to RU 486)” value is 13,5%. The minimal effective dose in assay [2] is 8 mg/kg.
In the case of `C=C1CCO[C@]12CC[C@H]1[C@@H]3CCC4=CC(=O)CCC4=C3[C@@H](c3ccc(SC)cc3)C[C@@]12C`, in assay [1], the “Binding affinity to orosomucoid (relative to RU 486)” value was 82%. The compound also came in with a minimal effective dose in assay [2] of more than 1 mg/kg.
For `C=C1CCO[C@]12CC[C@H]1[C@@H]3CCC4=CC(=O)CCC4=C3[C@@H](c3ccc(OC)cc3)C[C@@]12C` the same measures were 64% and 1 mg/kg.
As for `C=C1CCO[C@]12CC[C@H]1[C@@H]3CCC4=CC(=O)CCC4=C3[C@@H](c3ccc(N(C)C)cc3)C[C@@]12C` [Org 33245, (11β,17α)-17,23-epoxy-11-[(4-dimethylamino)phenyl]-19,24-dinorchola-4,9,20-trien-3-one], the “Binding affinity to orosomucoid (relative to RU 486)” value in assay [1] was 222%. For the same compound, in assay [1] (result in words, said to indicate a relatively long half life), the “binding to human orosomucoid” value is on record as “strong binding”. In assay [2], this compound registered a minimal effective dose of 0.5 mg/kg.

Broadly, the minimal effective dose is the smallest amount tested that counted as effective. A higher minimal effective dose goes with weaker potency.

These data come from patent EP1178807B1, “USE OF ORG 33245 IN COMBINED INTERMITTENT HORMONE THERAPY AND CONTRACEPTION” (Akzo Nobel N.V., priority 1999, dated 2000).
